This is an account of results in US8076338B2, “Kinase modulators and methods of use” (Exelixis, Inc., priority 2004, dated 2011).

Bounds are passed on as bounds.

One assay has as its target AktK (Homo sapiens, UniProt P31749). The experiment in a line: Luciferase-coupled chemiluminescence kinase assay (ATP consumption). As to conditions: Table 1; class symbols per key; read-out: AKT-1 IC50. In kind it is biochemical. The protocol:
(§1) One measure of inhibition is Ki. […] The Ki for a compound is determined from the IC50 based on three assumptions. First, only one compound molecule binds to the enzyme and there is no cooperativity. […] Third, the enzymatic rate of the enzyme-inhibitor complex is zero. The rate data (i.e. compound concentration) are fitted to the equation: […]
(§2) Luciferase-Coupled Chemiluminescence Assay Protocol
(§3) Kinase activity is measured as the percent of ATP consumed following the kinase reaction using luciferase-luciferin-coupled chemiluminescence. Reactions were conducted in 384-well white, medium binding microtiter plates (Greiner). Kinase reactions were initiated by combining test compounds, ATP and kinase in a 20 uL volume. The reaction mixture was incubated at ambient temperature for 3 hrs. For p70S6K and/or AktK, 2.5-5 nM of the enzyme was pre-incubated with compound in 20 mM Tris pH 7.5, 10 mM MgCl2, 0.03% TX-100, and 1 mM DTT for 30 minutes at room temperature. Following the kinase reaction, a 20 μL aliquot of luciferase-luciferin mix was added and the chemiluminescence signal measured using a Victor^2 plate reader (Perkin Elmer). The luciferase-luciferin mix contained 50 mM HEPES, pH 7.8, 67 mM oxalic acid (pH 7.8), 5 (or 50) mM DTT, 0.4% Triton X-100, 0.25 mg/mL coenzyme A, 63 μM AMP, 28 μg/1 mL luciferin and 40,000 units/mL luciferase. Total ATP consumption was limited to 25-60% and the IC50 values correlate well with those determined by radiometric assays.

In another assay the target is p70S6K (Homo sapiens, UniProt P23443). The assay is described as above. The format is biochemical. The settings on record: Table 1; class symbols per key. The protocol: as §1, §2, §3
Chain of p70S6K (P23443 whole entry): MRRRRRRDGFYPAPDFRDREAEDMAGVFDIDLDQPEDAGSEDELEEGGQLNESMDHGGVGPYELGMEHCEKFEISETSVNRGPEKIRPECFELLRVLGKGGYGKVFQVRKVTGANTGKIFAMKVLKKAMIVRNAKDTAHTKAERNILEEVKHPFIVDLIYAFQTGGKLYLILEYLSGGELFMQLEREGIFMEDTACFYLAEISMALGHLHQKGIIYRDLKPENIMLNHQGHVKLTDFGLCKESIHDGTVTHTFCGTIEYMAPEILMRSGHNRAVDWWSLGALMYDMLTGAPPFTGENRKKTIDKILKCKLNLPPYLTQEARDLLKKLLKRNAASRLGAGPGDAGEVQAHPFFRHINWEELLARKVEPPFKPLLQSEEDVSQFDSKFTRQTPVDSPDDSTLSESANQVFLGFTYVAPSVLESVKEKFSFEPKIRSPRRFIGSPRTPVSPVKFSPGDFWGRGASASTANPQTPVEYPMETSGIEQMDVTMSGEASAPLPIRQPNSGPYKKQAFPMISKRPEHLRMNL

Chain of AktK (P31749 whole entry): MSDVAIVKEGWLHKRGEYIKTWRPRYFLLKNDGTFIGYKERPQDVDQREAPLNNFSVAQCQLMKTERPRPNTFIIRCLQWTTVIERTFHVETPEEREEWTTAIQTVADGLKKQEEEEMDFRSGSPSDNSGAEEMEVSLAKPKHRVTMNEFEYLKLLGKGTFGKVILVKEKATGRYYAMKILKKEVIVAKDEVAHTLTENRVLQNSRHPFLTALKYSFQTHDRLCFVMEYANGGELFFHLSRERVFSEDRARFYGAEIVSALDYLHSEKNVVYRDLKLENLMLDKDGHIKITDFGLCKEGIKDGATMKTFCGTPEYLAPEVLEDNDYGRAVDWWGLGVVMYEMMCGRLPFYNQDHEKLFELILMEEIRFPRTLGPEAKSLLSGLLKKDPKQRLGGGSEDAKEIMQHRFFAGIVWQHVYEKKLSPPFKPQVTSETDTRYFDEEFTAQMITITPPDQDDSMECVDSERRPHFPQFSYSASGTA

`CCc1n[nH]c2ncnc(N3CCN(c4cc(Cl)cc(OCC5CCN(C)CC5)c4C)CC3)c12` [Entry 31, 4-[4-(5-chloro-2-methyl-3-{[(1-methylpiperidin-4-yl)methyl]oxy}phenyl)piperazin-1-yl]-3-ethyl-1H-pyrazolo[3,4-d]pyrimidine]: the IC50 at AktK is 100 to 1000 nM; against p70S6K it was under 100 nM.

Regarding `CCc1n[nH]c2ncnc(N3CCN(c4cccc(OCCN(CC)CC)c4C)CC3)c12` [Entry 32, N,N-diethyl-2-({3-[4-(3-ethyl-1H-pyrazolo[3,4-d]pyrimidin-4-yl)piperazin-1-yl]-2-methylphenyl}oxy)ethanamine], the concentration for half-maximal inhibition (IC50) lay within 1000 to 10000 nM on AktK and 100 to 1000 nM against p70S6K.

`CCN(CC)CCOc1cc(Cl)cc(N2CCN(c3ncnc4c3c(C(F)(F)F)nn4C(C)(C)C)CC2)c1C` [Entry 33, 2-[(5-chloro-3-{4-[1-(1,1-dimethylethyl)-3-(tri-fluoromethyl)-1H-pyrazolo[3,4-d]pyrimidin-4-yl]piperazin-1-yl}-2-methylphenyl)oxy]-N,N-diethylethanamine]: the IC50 at AktK and at p70S6K was 1000 to 10000 nM each time.

In the case of `CCN(CC)CCOc1cc(Cl)cc(N2CCN(c3ncnc4[nH]nc(C(F)(F)F)c34)CC2)c1C` [Entry 34, 2-[(5-chloro-2-methyl-3-{4-[3-(trifluoromethyl)-1H-pyrazolo[3,4-d]pyrimidin-4-yl]piperazin-1-yl}phenyl)oxy]-N,N-diethylethanamine], the IC50 was 100 to 1000 nM on AktK and under 100 nM against p70S6K.

Consider `CCc1n[nH]c2ncnc(N3CCN(c4cc(Cl)cc(OCCCN5CCCC5)c4C)CC3)c12` [Entry 35, 4-(4-{5-chloro-2-methyl-3-[(3-pyrrolidin-1-ylpropyl)oxy]phenyl}piperazin-1-yl)-3-ethyl-1H-pyrazolo[3,4-d]pyrimidine], for which the IC50 at AktK is 100 to 1000 nM; against p70S6K it was under 100 nM.

With `CCc1n[nH]c2ncnc(N3CCN(c4cc(Cl)cc(OCCCN5CCN(C)CC5)c4C)CC3)c12` [Entry 36, 4-[4-(5-chloro-2-methyl-3-{[3-(4-methylpiperazin-1-yl)propyl]oxy}phenyl)piperazin-1-yl]-3-ethyl-1H-pyrazolo[3,4-d]pyrimidine], the IC50 on AktK is 100 to 1000 nM; on p70S6K it was under 100 nM.

Take `Cc1c(OCCCN2CCCCC2)cc(Cl)cc1N1CCN(c2ncnc3[nH]nc(Br)c23)CC1` [Entry 37, 3-bromo-4-(4-{5-chloro-2-methyl-3-[(3-piperidin-1-ylpropyl)oxy]phenyl}piperazin-1-yl)-1H-pyrazolo[3,4-d]pyrimidine]: the concentration for half-maximal inhibition (IC50) at AktK was 100 to 1000 nM; against p70S6K it was under 100 nM.

Regarding `Cc1c(OCCCN2CCOCC2)cc(Cl)cc1N1CCN(c2ncnc3[nH]nc(Br)c23)CC1` [Entry 38, 3-bromo-4-(4-{5-chloro-2-methyl-3-[(3-morpholin-4-ylpropyl)oxy]phenyl}piperazin-1-yl)-1H-pyrazolo[3,4-d]pyrimidine], the IC50 at AktK was 100 to 1000 nM; against p70S6K, under 100 nM.

In the case of `Cc1c(OCCN2CCCC2)cc(Cl)cc1N1CCN(c2ncnc3[nH]nc(C(F)(F)F)c23)CC1` [Entry 39, 4-(4-{5-chloro-2-methyl-3-[(2-pyrrolidin-1-ylethyl)oxy]phenyl}piperazin-1-yl)-3-(trifluoromethyl)-1H-pyrazolo[3,4-d]pyrimidine], the figures for the IC50 on AktK and against p70S6K were 100 to 1000 nM and under 100 nM, respectively.

On to `Cc1c(OCCCN2CCOCC2)cc(Cl)cc1N1CCN(c2ncnc3[nH]nc(C(F)(F)F)c23)CC1` [Entry 40, 4-(4-{5-chloro-2-methyl-3-[(3-morpholin-4-ylpropyl)oxy]phenyl}piperazin-1-yl)-3-(trifluoromethyl)-1H-pyrazolo[3,4-d]pyrimidine], for which the IC50 on AktK was 1000 to 10000 nM; at p70S6K, under 100 nM.

Turning to `Cc1c(OCCN2CCOCC2)cc(Cl)cc1N1CCN(c2ncnc3[nH]nc(C(F)(F)F)c23)CC1` [Entry 41, 4-(4-{5-chloro-2-methyl-3-[(2-morpholin-4-ylethyl)oxy]phenyl}piperazin-1-yl)-3-(trifluoromethyl)-1H-pyrazolo[3,4-d]pyrimidine], the concentration for half-maximal inhibition (IC50) at AktK was 1000 to 10000 nM; against p70S6K it was under 100 nM.

As for `CCN(CC)CCCOc1cc(Cl)cc(N2CCN(c3ncnc4[nH]nc(C(F)(F)F)c34)CC2)c1C` [Entry 56, 3-[(5-chloro-2-methyl-3-{4-[3-(trifluoromethyl)-1H-pyrazolo[3,4-d]pyrimidin-4-yl]piperazin-1-yl}phenyl)oxy]-N,N-diethylpropan-1-amine], the results for the IC50 on AktK and at p70S6K were 100 to 1000 nM and under 100 nM, respectively.

For `Cc1ccc(N2CCN(c3ncnc4[nH]nc(Br)c34)CC2)cc1NCCN1CCCC1` [Entry 57, 5-[4-(3-bromo-1H-pyrazolo[3,4-d]pyrimidin-4-yl)piperazin-1-yl]-2-methyl-N-(2-pyrrolidin-1-ylethyl)aniline], the figures for the IC50 on AktK and against p70S6K were 1000 to 10000 nM and 100 to 1000 nM, respectively.

As for `Cc1c(NCCN2CCCC2)cc(F)cc1N1CCN(c2ncnc3[nH]nc(Br)c23)CC1` [Entry 58, 3-[4-(3-bromo-1H-pyrazolo[3,4-d]pyrimidin-4-yl)piperazin-1-yl]-5-fluoro-2-methyl-N-(2-pyrrolidin-1-ylethyl)aniline], the IC50 at AktK is 100 to 1000 nM; on p70S6K, under 100 nM.

For the compound `Cc1c(CCCN2CCCC2)cc(Cl)cc1N1CCN(c2ncnc3[nH]ncc23)CC1` [Entry 59, 4-{4-[5-chloro-2-methyl-3-(3-pyrrolidin-1-ylpropyl)phenyl]piperazin-1-yl}-1H-pyrazolo[3,4-d]pyrimidine], the IC50 was 1000 to 10000 nM on AktK and under 100 nM on p70S6K.

Take `Cc1c(CCCN2CCCC2)cc(F)cc1N1CCN(c2ncnc3[nH]nc(Br)c23)CC1` [Entry 60, 3-bromo-4-{4-[5-fluoro-2-methyl-3-(3-pyrrolidin-1-ylpropyl)phenyl]piperazin-1-yl}-1H-pyrazolo[3,4-d]pyrimidine]: the 50% inhibitory concentration (IC50) on AktK was 100 to 1000 nM; on p70S6K it was under 100 nM.

`Cc1c(CCCN2CCCC2)cc(Cl)cc1N1CCN(c2ncnc3[nH]nc(C(F)(F)F)c23)CC1` [Entry 61, 4-{4-[5-chloro-2-methyl-3-(3-pyrrolidin-1-ylpropyl)phenyl]piperazin-1-yl}-3-(trifluoromethyl)-1H-pyrazolo[3,4-d]pyrimidine]: the IC50 at AktK and against p70S6K was under 100 nM throughout.

For `CCc1n[nH]c2ncnc(N3CCN(c4cc(Cl)cc(CCCN5CCN(C)CC5)c4C)CC3)c12` [Entry 62, 4-(4-{5-chloro-2-methyl-3-[3-(4-methylpiperazin-1-yl)propyl]phenyl}piperazin-1-yl)-3-ethyl-1H-pyrazolo[3,4-d]pyrimidine], the values for the IC50 at AktK and at p70S6K were 100 to 1000 nM and under 100 nM, respectively.

As for `Brc1n[nH]c2ncnc(N3CCN(c4ccccn4)CC3)c12` [Entry 63, 3-bromo-4-(4-pyridin-2-ylpiperazin-1-yl)-1H-pyrazolo[3,4-d]pyrimidine], the figures for the concentration for half-maximal inhibition (IC50) at AktK and at p70S6K were 1000 to 10000 nM and 100 to 1000 nM, respectively.

For `Cc1ccc(N2CCN(c3ncnc4[nH]nc(Br)c34)CC2)c(C)c1` [Entry 64, 3-bromo-4-[4-(2,4-dimethylphenyl)piperazin-1-yl]-1H-pyrazolo[3,4-d]pyrimidine], the IC50 lay in the range of 1000 to 10000 nM on AktK and 100 to 1000 nM against p70S6K.

In the case of `COc1cccc(N2CCN(c3ncnc4[nH]nc(Br)c34)CC2)c1` [Entry 65, 3-bromo-4-{4-[3-(methyloxy)phenyl]piperazin-1-yl}-1H-pyrazolo[3,4-d]pyrimidine], the IC50 at AktK is 1000 to 10000 nM; against p70S6K it was under 100 nM.

The IC50 is the concentration that inhibits the measured activity by half.
